Results reported in ChEMBL document CHEMBL3044851, “Immunomodulatory active steroidal saponins from Asparagus racemosus” (Med Chem Res, 2013).
The source made the active and inactive calls. No cut-off for these calls is given here.

Columns and labels:
PMN [1] = experiment: Immunomodulatory activity in Homo sapiens (human) PMN cells assessed as increase in reactive oxygen species formation at 1 uM at 0 min after luminal addition by chemiluminescence assay; format: functional, cell-based
PMN [2] = experiment: Immunomodulatory activity in Homo sapiens (human) PMN cells assessed as increase in superoxide species generation at 1 uM after 2 hr by NBT assay; format: functional, cell-based
PMN [3] = experiment: Immunomodulatory activity in Homo sapiens (human) PMN cells assessed as increase in NO release at 1 uM after 1 hr by ELISA plate reader analysis; format: functional, cell-based
PMN [4] = experiment: Immunomodulatory activity in Homo sapiens (human) PMN cells assessed as increase in reactive oxygen species formation at 1 uM at 40 min after luminal addition by chemiluminescence assay; format: functional, cell-based
PMN [5] = experiment: Immunomodulatory activity in Homo sapiens (human) PMN cells assessed as increase in superoxide species generation at 0.001 to 0.0075 ug/ml after 2 hr by NBT assay; format: functional, cell-based
[6] = Cytotoxicity against Homo sapiens (human) PMN cells assessed as cell viability at 0.01 ug/ml by trypan blue dye exclusion test (reference value: 83.94 +/-5.05%); format: cell-based; settings: read-out: Activity
PMN [7] = experiment: Immunomodulatory activity in Homo sapiens (human) PMN cells assessed as increase in phagocytic index using Candida albicans as an infectious organism after 1 hr by Giemsa staining based microscopic analysis; format: functional, cell-based
[8] = Immunomodulatory activity in Homo sapiens (human) PMN cells assessed as induction of phagocytosis using Candida albicans as an infectious organism at 1 uM after 1 hr by Giemsa staining based microscopic analysis (reference value: 27.33 +/-2.52%); format: functional
[9] = Cytotoxicity against Homo sapiens (human) PMN cells assessed as cell viability at 0.005 ug/ml by trypan blue dye exclusion test (reference value: 83.94 +/-5.05%); format: cell-based; settings: read-out: Activity
PMN [10] = experiment: Immunomodulatory activity in Homo sapiens (human) PMN cells assessed as increase in NO release at 0.001 to 0.0075 ug/ml after 1 hr by ELISA plate reader analysis; format: functional, cell-based
[11] = Cytotoxicity against Homo sapiens (human) PMN cells assessed as cell viability at 1 ug/ml by trypan blue dye exclusion test (reference value: 83.94 +/-5.05%); format: cell-based; settings: read-out: Activity
[12] = Cytotoxicity against Homo sapiens (human) PMN cells assessed as cell viability at 0.001 ug/ml by trypan blue dye exclusion test (reference value: 83.94 +/-5.05%); format: cell-based; settings: read-out: Activity
[13] = Cytotoxicity against Homo sapiens (human) PMN cells assessed as cell viability at 0.1 ug/ml by trypan blue dye exclusion test (reference value: 83.94 +/-5.05%); format: cell-based; settings: read-out: Activity
[14] = Immunomodulatory activity in Homo sapiens (human) PMN cells assessed as induction of phagocytosis using Candida albicans as an infectious organism at 0.0075 ug/ml after 1 hr by Giemsa staining based microscopic analysis (reference value: 27.33 +/-2.52%); format: functional
[15] = Immunomodulatory activity in Homo sapiens (human) PMN cells assessed as induction of phagocytosis using Candida albicans as an infectious organism at 0.001 ug/ml after 1 hr by Giemsa staining based microscopic analysis (reference value: 27.33 +/-2.52%); format: functional
PMN [16] = experiment: Immunomodulatory activity in Homo sapiens (human) PMN cells assessed as increase in reactive oxygen species formation at 0.001 to 0.0075 ug/ml at 40 min after luminal addition by chemiluminescence assay; format: functional, cell-based
[17] = Cytotoxicity against Homo sapiens (human) PMN cells assessed as cell viability at 0.0075 ug/ml by trypan blue dye exclusion test (reference value: 83.94 +/-5.05%); format: cell-based; settings: read-out: Activity
[18] = Cytotoxicity against Homo sapiens (human) PMN cells assessed as cell viability at 0.5 ug/ml by trypan blue dye exclusion test (reference value: 83.94 +/-5.05%); format: cell-based; settings: read-out: Activity
[19] = Immunomodulatory activity in Homo sapiens (human) PMN cells assessed as induction of phagocytosis using Candida albicans as an infectious organism at 0.005 ug/ml after 1 hr by Giemsa staining based microscopic analysis (reference value: 27.33 +/-2.52%); format: functional
PMN [20] = experiment: Immunomodulatory activity in Homo sapiens (human) PMN cells assessed as increase in reactive oxygen species formation at 0 min after luminal addition by chemiluminescence assay; format: functional, cell-based
PMN [21] = experiment: Immunomodulatory activity in Homo sapiens (human) PMN cells assessed as increase in reactive oxygen species formation at 0.001 ug/ml at 0 min after luminal addition by chemiluminescence assay; format: functional, cell-based
PMN [22] = experiment: Immunomodulatory activity in Homo sapiens (human) PMN cells assessed as increase in phagocytic index using Candida albicans as an infectious organism at 0.005 ug/ml after 1 hr by Giemsa staining based microscopic analysis; format: functional, cell-based
PMN [23] = experiment: Immunomodulatory activity in Homo sapiens (human) PMN cells assessed as increase in reactive oxygen species formation at 0.001 ug/ml at 40 min after luminal addition by chemiluminescence assay; format: functional, cell-based

SMILES | Activity (PMN [5]) | Activity [8] [%] | viability at 0.005 ug/ml [9] [%] | Activity (PMN [10]) | viability at 0.001 ug/ml [12] [%] | Activity [14] [%] | Activity [15] [%] | viability at 0.0075 ug/ml [17] [%] | Activity [19] [%] | also measured
CCCCCCCCCCCCCC(=O)O[C@@H]1[C@@H](C)[C@@]2(O)[C@@H](C=C(CO)C[C@]3(O)C(=O)C(C)=C[C@@H]23)[C@@H]2C(C)(C)[C@]12OC(C)=O | – | – | – | – | – | – | – | – | – | Activity (PMN [1]): Active; Activity (PMN [2]): Active; Activity (PMN [3]): Active; Activity (PMN [4]): Active
C[C@H]1CC[C@@]2(OC1)O[C@H]1C[C@H]3[C@@H]4CC[C@@H]5C[C@@H](O[C@@H]6O[C@H](CO[C@@H]7O[C@@H](C)[C@H](O)[C@@H](O)[C@H]7O)[C@@H](O)[C@H](O)[C@H]6O[C@@H]6OC[C@H](O)[C@H](O)[C@H]6O)CC[C@]5(C)[C@H]4CC[C@]3(C)[C@H]1[C@@H]2C [SHATAVAROSIDE A] | Active | 35 | 100 | Active | 100 | 23.5 | 32 | 100 | 29.33 | viability at 0.01 ug/ml [6]: 72.3%; Activity (PMN [7]): Dose-dependent effect; viability at 1 ug/ml [11]: 76.2%; viability at 0.1 ug/ml [13]: 71.7%; Activity (PMN [16]): Active; viability at 0.5 ug/ml [18]: 71.2%; Activity (PMN [20]): Dose-dependent effect
C[C@H]1CC[C@@]2(OC1)O[C@H]1C[C@H]3[C@@H]4CC[C@@H]5C[C@@H](O[C@@H]6O[C@H](CO[C@@H]7O[C@@H](C)[C@H](O)[C@@H](O)[C@H]7O)[C@@H](O[C@@H]7OC[C@@H](O)[C@H](O)[C@H]7O)[C@H](O)[C@H]6O[C@@H]6O[C@H](CO)[C@@H](O)[C@H](O)[C@H]6O)CC[C@]5(C)[C@H]4CC[C@]3(C)[C@H]1[C@@H]2C [SHATAVAROSIDE B] | Active | 35 | 92.8 | Active | 94.2 | 26.33 | 36.83 | 91 | 28.17 | Activity (PMN [21]): Active; Activity (PMN [22]): Active; Activity (PMN [23]): Active
